# Experimental data published in ChEMBL document CHEMBL6177948, “Discovery of potential Leonurine-based therapeutic lead MJ210 attenuates Parkinson's disease pathogenesis via NF-κB and MAPK pathways: Mechanistic insights from in vitro and in vivo rotenone models” (Eur J Med Chem, 2025).
# Activity calls are given as the source filed them. The calls are words filed in the database; no cut-off is given here.
# Legend:
# [1] = test system: SH-SY5Y; test: Neuroprotective activity against rotenone-induced mitochondrial ROS generation in human SH-SY5Y cells assessed as decrease in ROS level at 5 uM preincubated with compound for 24 hrs followed by rotenone addition and measured after 24 hrs by Mito Tracker staining based fluorescence microscopic analysis; assay type: functional, cell-based; settings: time 48.0 hrs
# [2] = test system: SH-SY5Y; test: Neuroprotective activity against rotenone-induced ROS formation in human SH-SY5Y cells assessed as reduction in ROS level by measuring fluorescence intensity at 5 uM preincubated with compound for 24 hrs followed by rotenone addition and measured after 24 hrs by CellRox reagent based fluorescence microscopic analysis; assay type: functional, cell-based; settings: time 48.0 hrs
# [3] = test system: SH-SY5Y; test: Reversal of rotenone-induced mitochondrial membrane depolarization in human SH-SY5Y cells assessed as increase in aggregates fluorescence intensity at 5 uM preincubated with compound for 24 hrs followed by rotenone addition and measured after 24 hrs by JC-10 based fluorescence microscopic analysis; assay type: functional, cell-based; settings: time 48.0 hrs
# [4] = test system: Rattus norvegicus; test: Anti-inflammatory activity in rotenone-induced male Wistar rat model assessed as reduction in phosphorylated NF-kappaB P65 protein expression level in striatum at 5 mg/kg, ip pretreated with compound every alternative days followed by rotenone addition and measured after 42 days by ELISA; assay type: functional, organism-based; settings: time 42.0 day
# [5] = test system: SH-SY5Y; test: Neuroprotective activity against rotenone-induced cytotoxicity in human SH-SY5Y cells assessed as increase in number of live cells by measuring mean fluorescence intensity; assay type: functional, cell-based
# [6] = test system: Rattus norvegicus; test: Anti-parkinson activity in rotenone-induced male Wistar rat model assessed as reduction in climbing time at 5 mg/kg, ip pretreated with compound every alternative days followed by rotenone addition and measured after 42 days by pole test; assay type: functional, organism-based; settings: time 42.0 day
# [7] = test system: SH-SY5Y; test: Inhibition of MAPK signaling pathway in rotenone-induced human SH-SY5Y cells assessed as reduction in P-38 phosphorylation level by ELISA; assay type: cell-based
# [8] = test system: Rattus norvegicus; test: Anti-inflammatory activity in rotenone-induced male Wistar rat model assessed as reduction in IL-1beta expression level in substantia nigra at 5 mg/kg, ip pretreated with compound every alternative days followed by rotenone addition and measured after 42 days by ELISA; assay type: functional, organism-based; settings: time 42.0 day
# [9] = Toxicity in male Wistar rat assessed as change in cellular structure of heart at 1 to 10 mg/kg by H and E staining based analysis; assay type: organism-based; settings: in vivo, dose 1-10 mg/kg
# [10] = test system: SH-SY5Y; test: Neuroprotective activity against rotenone-induced mitochondrial morphological changes in human SH-SY5Y cells assessed as intact tubular at 5 uM preincubated with compound for 24 hrs followed by rotenone addition and measured after 24 hrs by Mito Tracker staining based fluorescence microscopic analysis; assay type: functional, cell-based; settings: time 48.0 hrs
# [11] = test system: Rattus norvegicus; test: Anti-parkinson activity in rotenone-induced neurodegeneration in male Wistar rat model assessed as minimal neuronal loss in striatum at 5 mg/kg, ip pretreated with compound every alternative days followed by rotenone addition and measured after 42 days by H and E staining based analysis; assay type: functional, organism-based; settings: time 42.0 day
# [12] = Toxicity in male Wistar rat assessed as change in cellular structure of kidney at 1 to 10 mg/kg by H and E staining based analysis; assay type: organism-based; settings: in vivo, dose 1-10 mg/kg
# [13] = test system: Rattus norvegicus; test: Anti-parkinson activity in rotenone-induced male Wistar rat model assessed as increase in TH expression in substantia nigra at 1 mg/kg, ip pretreated with compound every alternative days followed by rotenone addition and measured after 42 days by Western blotting analysis; assay type: functional, organism-based; settings: time 42.0 day
# [14] = test system: Rattus norvegicus; test: In vivo inhibition of MAPK signaling pathway in rotenone-induced parkinson disease male Wistar rat model assessed as reduction in ERK1/2 phosphorylation level in striatum at 5 mg/kg, ip pretreated with compound every alternative days followed by rotenone addition and measured after 42 days by Western blotting analysis; assay type: functional, organism-based; settings: time 42.0 day
# [15] = test system: SH-SY5Y; test: Inhibition of MAPK signaling pathway in rotenone-induced human SH-SY5Y cells assessed as reduction in ERK1/2 phosphorylation level by ELISA; assay type: cell-based
# [16] = test system: Rattus norvegicus; test: Anti-parkinson activity in rotenone-induced neurodegeneration in male Wistar rat model assessed as decrease count of pyknotic cells in cortex at 5 mg/kg, ip pretreated with compound every alternative days followed by rotenone addition and measured after 42 days by H and E staining based analysis; assay type: functional, organism-based; settings: time 42.0 day
# [17] = test system: SH-SY5Y; test: Anti-inflammatory activity against rotenone-induced human SH-SY5Y cells assessed as reduction in IL-6 mRNA expression level by RT-qPCR analysis; assay type: functional, cell-based
# [18] = Drug uptake in male Wistar rat brain at 5 mg/kg, ip measured after 6 hrs by HPLC analysis; assay type: ADME, organism-based; settings: in vivo
# [19] = test system: Rattus norvegicus; test: Anti-parkinson activity in rotenone-induced neurodegeneration in male Wistar rat model assessed as reduction in pyknotic neurons in striatum at 5 mg/kg, ip pretreated with compound every alternative days followed by rotenone addition and measured after 42 days by Nissl staining based analysis; assay type: functional, organism-based; settings: time 42.0 day
# [20] = test system: Rattus norvegicus; test: Anti-parkinson activity in rotenone-induced neurodegeneration in male Wistar rat model assessed as decrease count of pyknotic cells in substantia nigra at 5 mg/kg, ip pretreated with compound every alternative days followed by rotenone addition and measured after 42 days by H and E staining based analysis; assay type: functional, organism-based; settings: time 42.0 day
# [21] = test system: Rattus norvegicus; test: Anti-parkinson activity in rotenone-induced neurodegeneration in male Wistar rat model assessed as minimal neuronal loss in substantia nigra at 5 mg/kg, ip pretreated with compound every alternative days followed by rotenone addition and measured after 42 days by H and E staining based analysis; assay type: functional, organism-based; settings: time 42.0 day
# [22] = Toxicity in male Wistar rat assessed as change in cellular structure of spleen at 1 to 10 mg/kg by H and E staining based analysis; assay type: organism-based; settings: in vivo, dose 1-10 mg/kg
# [23] = test system: Rattus norvegicus; test: Anti-parkinson activity in rotenone-induced neurodegeneration in male Wistar rat model assessed as reduction in necrosis in cortex at 5 mg/kg, ip pretreated with compound every alternative days followed by rotenone addition and measured after 42 days by Nissl staining based analysis; assay type: functional, organism-based; settings: time 42.0 day
# [24] = test system: Rattus norvegicus; test: Anti-parkinson activity in rotenone-induced male Wistar rat model assessed as increase in TH expression in substantia nigra at 5 to 10 mg/kg, ip pretreated with compound every alternative days followed by rotenone addition and measured after 42 days by Western blotting analysis; assay type: functional, organism-based; settings: dose 5-10 mg/kg, time 42.0 day
# [25] = test system: Rattus norvegicus; test: Anti-parkinson activity in rotenone-induced neurodegeneration in male Wistar rat model assessed as decrease count of pyknotic cells in striatum at 5 mg/kg, ip pretreated with compound every alternative days followed by rotenone addition and measured after 42 days by H and E staining based analysis; assay type: functional, organism-based; settings: time 42.0 day
# [26] = test system: SH-SY5Y; test: Inhibition of MAPK signaling pathway in rotenone-induced human SH-SY5Y cells assessed as reduction in JNK phosphorylation level by ELISA; assay type: cell-based
# [27] = test system: SH-SY5Y; test: Neuroprotective activity against rotenone-induced cytotoxicity in human SH-SY5Y cells assessed as increase in green fluorescence at 5 uM by Calcein-AM and PI staining based fluorescence microscopy analysis; assay type: functional, cell-based
# [28] = test system: SH-SY5Y; test: Reversal of rotenone-induced mitochondrial membrane depolarization in human SH-SY5Y cells assessed as increase in JC-10 aggregation by measuring red fluorescence at 5 uM preincubated with compound for 24 hrs followed by rotenone addition and measured after 24 hrs by JC-10 based fluorescence microscopic analysis; assay type: functional, cell-based
# [29] = test system: SH-SY5Y; test: Anti-inflammatory activity against rotenone-induced human SH-SY5Y cells assessed as reduction in iNOS mRNA expression level by RT-qPCR analysis; assay type: functional, cell-based
# [30] = test system: Rattus norvegicus; test: Anti-parkinson activity in rotenone-induced male Wistar rat model assessed as improvement in bradykinesia at 5 mg/kg, ip pretreated with compound every alternative days followed by rotenone addition and measured after 42 days by pole test; assay type: functional, organism-based; settings: time 42.0 day
# [31] = test system: Rattus norvegicus; test: Anti-parkinson activity in rotenone-induced male Wistar rat model assessed as increase TH expression in striatum at 5 mg/kg, ip pretreated with compound every alternative days followed by rotenone addition and measured after 42 days by Western blotting analysis; assay type: functional, organism-based; settings: time 42.0 day
compound,measurement,setting,value
COc1cc(CCC(=O)N2CCCCC2)cc(OC)c1OC(=O)c1ccccn1,Activity,[1],Active
same,Activity,[2],Active
same,Activity,[3],Active
same,Activity,[4],Active
same,Activity,[5],Active
same,Activity,[6],Active
same,inhibition,[7],Active
same,Activity,[8],Active
same,Activity,[9],Non-toxic
same,Activity,[10],Active
same,Activity,[11],Active
same,Activity,[12],Non-toxic
same,Activity,[13],Active
same,inhibition,[14],Active
same,inhibition,[15],Active
same,Activity,[16],Active
same,Activity,[17],Active
same,Drug uptake,[18],Active
same,Activity,[19],Active
same,Activity,[20],Active
same,Activity,[21],Active
same,Activity,[22],Non-toxic
same,Activity,[23],Active
same,Activity,[24],Active
same,Activity,[25],Active
same,inhibition,[26],Active
same,Activity,[27],Active
same,Activity,[28],Active
same,Activity,[29],Active
same,Activity,[30],Active
same,Activity,[31],Active
